Tested on: PARP1 mRNA
Assay: qRT-PCR of PARP1 mRNA
Type: cell-based
Conditions: U87 cells
Method: For most RNA experiments, RNA was isolated from cells using the Qiagen™ RNeasy minikit. Complementary DNA was generated using the Qiagen™ Quantitect™ reverse transcription kit with 0.5 μg of input RNA as measured with a NanoDrop spectrophotometer (Thermo Scientific™). Real-time PCR was carried out on an ABI StepOne Plus™ machine using power SYBR Green dye (Thermo Scientific™). Transcript levels were assayed in triplicate and normalized to RPL32 and HPS90 mRNAs. Relative changes in cDNA levels were calculated using the comparative Ct method (ΔΔCT method). All RT-qPCR primers were designed with Primer3Plus™ or retrieved from Primerbank™. Primer sequences are listed here, including in Table 3. All primers were purchased from Life Technologies™. H. Generation of p53 Knock Out U87 Cell Lines by CRISPR
Statistical significance was assessed by an unpaired t-test: NS P>0.05, *P≤0.05, **P≤0.01, ***P≤0.001 ****P≤0.0001.

siC9: siRNA targeting C9 mRNA: UUAAUGAAACAAUAAUCACUC (SEQ ID NO:631; sense) and GUGAUUAUUGUUUCAUUAAUC (SEQ ID NO:632; antisense) (listed as RNA, chemistry not given here)
PARP1 mRNA: significant repression

Reference: patent publication US20210108199A1, “Treatment for aggressive cancers by targeting C9ORF72” (The Trustees of Columbia University in the City of New York, priority 2017, published 2021)
